Test system: Meloidogyne incognita
Test: Meloidogyne incognita test: gall rating on cucumber plants in pots after soil application
Format: in vivo
Set-up: key: 0: no galls; 1: very few small galls; 2: numerous small galls; 3: numerous small galls of which some are grown together; 4: numerous small and some big galls; 25% of roots severely galled; 6: 50% of roots severely galled; 75% of roots severely galled; 8: no healthy roots but plant is still green; 9: roots rotting and plant dying; 10: plant and roots dead
Details: 1000 ppm applied to soil inoculated with 5000 eggs & J2s; cucumber seedlings; rated 30 days after application; 0-10 scale (Zeck 1971); untreated check up to 8
Method: Meloidogyne incognita Test:
The trial pots were filled with soil containing a mixture of sand:soil:cocopeat in a ratio of 1:1:1. To the soil of each pot 5 mL of a nematode suspension (Meloidogyne incognita, mix of 5000 eggs & J2s) was added. One hour later the respective test compound at the stated concentration was applied to each pot. 10 days old cucumber seedlings were transplanted into the pots one day after the application. The cucumber plants were allowed to grow at a temperature of 27° C. under greenhouse conditions. The evaluation of the gall rating was recorded 30 days after the application. The plants were carefully uprooted and the roots were thoroughly washed. The gall rating was done on a 0-10 scale as described by Zeck (1971) and shown below: • 0=no galls • 1=very few small galls • 2=numerous small galls • 3=numerous small galls of which some are grown together • 4=numerous small and some big galls • 5=25% of roots severely galled • 6=50% of roots severely galled • 7=75% of roots severely galled • 8=no healthy roots but plant is still green • 9=roots rotting and plant dying • 10=plant and roots dead

Q: With `Cc1cc(S(=O)(=O)NC(=O)c2nnn(-c3ccc(Cl)cc3Cl)c2C)c(C)cc1Cl` [Compound 280, N-((4-chloro-2,5-dimethylphenyl)sulfonyl)-1-(2,4-dichlorophenyl)-5-methyl-1H-1,2,3-triazole-4-carboxamide] as the compound, how does the gall rating scale read?
A: 4

Q: `Cc1c(C(=O)NS(=O)(=O)c2c(F)cc(F)cc2F)nnn1-c1ccc(Cl)cc1Cl` [Compound 281, 1-(2,4-dichlorophenyl)-5-methyl-N-((2,4,6-trifluorophenyl)sulfonyl)-1H-1,2,3-triazole-4-carboxamide] was tested. Which gall rating scale did it give?
A: 4

Q: For `CCc1c(C(=O)NS(=O)(=O)c2cc(C(F)(F)F)ccc2Cl)nnn1-c1ccc(OC(F)(F)F)cc1Cl` [Compound 311, 1-(2-chloro-4-(trifluoromethoxy)phenyl)-N-((2-chloro-5-(trifluoromethyl)phenyl)sulfonyl)-5-ethyl-1H-1,2,3-triazole-4-carboxamide], which gall rating scale is on record?
A: 4

Q: Which gall rating scale does the source give for `Cc1c(C(=O)NS(=O)(=O)c2cc(C(F)(F)F)ccc2Cl)nnn1-c1ccc(C#N)cc1Cl` [Compound 315] here?
A: 4

Q: For `Cc1c(C(=O)NS(=O)(=O)c2cc(Cl)ccc2Cl)nnn1-c1ccc(C#N)cc1Cl` [Compound 316, 1-(2-chloro-4-cyanophenyl)-N-((2,5-dichlorophenyl)sulfonyl)-5-methyl-1H-1,2,3-triazole-4-carboxamide], which gall rating scale is on record?
A: 4

Q: Which gall rating scale does the source give for `Cc1ccc(C)c(S(=O)(=O)NC(=O)c2nnn(-c3ccc(C#N)cc3Cl)c2C)c1` [Compound 328] here?
A: 4

Q: Which gall rating scale does the source give for `O=C(NS(=O)(=O)c1ccccc1C(F)(F)F)c1nnn(-c2cc(Cl)ccc2Cl)c1C(F)(F)F` [Compound 335, 1-(2,5-dichlorophenyl)-5-(trifluoromethyl)-N-((2-(trifluoromethyl)phenyl)sulfonyl)-1H-1,2,3-triazole-4-carboxamide] here?
A: 4

Q: How did the gall rating scale turn out when `CCc1c(C(=O)NS(=O)(=O)c2cc(OC)ccc2Cl)nnn1-c1ccc(OC(F)(F)F)cc1Cl` [Compound 336, 1-(2-chloro-4-(trifluoromethoxy)phenyl)-N-((2-chloro-5-methoxyphenyl)sulfonyl)-5-ethyl-1H-1,2,3-triazole-4-carboxamide] was run?
A: 4

Q: How did the gall rating scale turn out when `CCc1c(C(=O)NS(=O)(=O)c2cc(C)ccc2C)nnn1-c1ccc(OC(F)(F)F)cc1Cl` [Compound 337, 1-(2-chloro-4-(trifluoromethoxy)phenyl)-N-((2,5-dimethylphenyl)sulfonyl)-5-ethyl-1H-1,2,3-triazole-4-carboxamide] was run?
A: 4

Q: Which gall rating scale does the source give for `CCc1c(C(=O)NS(=O)(=O)c2ccccc2Cl)nnn1-c1ccc(OC(F)(F)F)cc1Cl` [Compound 338, 1-(2-chloro-4-(trifluoromethoxy)phenyl)-N-((2-chlorophenyl)sulfonyl)-5-ethyl-1H-1,2,3-triazole-4-carboxamide] here?
A: 4

Q: How did the gall rating scale turn out when `CCc1c(C(=O)NS(=O)(=O)c2ccccc2F)nnn1-c1ccc(OC(F)(F)F)cc1Cl` [Compound 339, 1-(2-chloro-4-(trifluoromethoxy)phenyl)-5-ethyl-N-((2-fluorophenyl)sulfonyl)-1H-1,2,3-triazole-4-carboxamide] was run?
A: 4

Q: Which gall rating scale does the source give for `O=C(NS(=O)(=O)c1cc(C(F)(F)F)ccc1Cl)c1nnn(-c2ccc(F)cc2Cl)c1C(F)(F)F` [Compound 364, 1-(2-chloro-4-fluorophenyl)-N-((2-chloro-5-(trifluoromethyl)phenyl)sulfonyl)-5-(trifluoromethyl)-1H-1,2,3-triazole-4-carboxamide] here?
A: 4

Q: Which gall rating scale does the source give for `O=C(NS(=O)(=O)c1ccccc1OC(F)(F)F)c1nnn(-c2cc(Cl)ccc2Cl)c1C(F)(F)F` [Compound 370, 1-(2,5-dichlorophenyl)-N-((2-(trifluoromethoxy)phenyl)sulfonyl)-5-(trifluoromethyl)-1H-1,2,3-triazole-4-carboxamide] here?
A: 4

Q: `O=C(NS(=O)(=O)c1cc(Cl)ccc1Cl)c1nnn(-c2cc(Cl)ccc2Cl)c1C(F)(F)F` [Compound 371, 1-(2,5-dichlorophenyl)-N-((2,5-dichlorophenyl)sulfonyl)-5-(trifluoromethyl)-1H-1,2,3-triazole-4-carboxamide] was tested. Which gall rating scale did it give?
A: 4

Q: With `CCc1c(C(=O)NS(=O)(=O)c2ccccc2F)nnn1-c1ccc(F)cc1Cl` [Compound 378, 1-(2-chloro-4-fluorophenyl)-5-ethyl-N-((2-fluorophenyl)sulfonyl)-1H-1,2,3-triazole-4-carboxamide] as the compound, how does the gall rating scale read?
A: 4

Q: For `Cc1ccc(C)c(S(=O)(=O)NC(=O)c2nnn(-c3ccc(C#N)cc3Cl)c2C(F)(F)F)c1` [Compound 389, 1-(2-chloro-4-cyanophenyl)-N-((2,5-dimethylphenyl)sulfonyl)-5-(trifluoromethyl)-1H-1,2,3-triazole-4-carboxamide], which gall rating scale is on record?
A: 4

Q: Which gall rating scale does the source give for `N#Cc1ccc(-n2nnc(C(=O)NS(=O)(=O)c3cc(C(F)(F)F)ccc3C(F)(F)F)c2C(F)(F)F)c(Cl)c1` [Compound 390, N-((2,5-bis(trifluoromethyl)phenyl)sulfonyl)-1-(2-chloro-4-cyanophenyl)-5-(trifluoromethyl)-1H-1,2,3-triazole-4-carboxamide] here?
A: 4

Q: Which gall rating scale does the source give for `N#Cc1ccc(-n2nnc(C(=O)NS(=O)(=O)c3ccccc3C(F)(F)F)c2C(F)(F)F)c(Cl)c1` [Compound 394, 1-(2-chloro-4-cyanophenyl)-5-(trifluoromethyl)-N-((2-(trifluoromethyl)phenyl)sulfonyl)-1H-1,2,3-triazole-4-carboxamide] here?
A: 4

Q: How did the gall rating scale turn out when `N#Cc1ccc(-n2nnc(C(=O)NS(=O)(=O)c3ccccc3OC(F)(F)F)c2C(F)(F)F)c(Cl)c1` [Compound 395, 1-(2-chloro-4-cyanophenyl)-N-((2-(trifluoromethoxy)phenyl)sulfonyl)-5-(trifluoromethyl)-1H-1,2,3-triazole-4-carboxamide] was run?
A: 4

Q: `Cc1ccccc1S(=O)(=O)NC(=O)c1nnn(-c2ccc(C#N)cc2Cl)c1C(F)(F)F` [Compound 396, 1-(2-chloro-4-cyanophenyl)-N-(o-tolylsulfonyl)-5-(trifluoromethyl)-1H-1,2,3-triazole-4-carboxamide] was tested. Which gall rating scale did it give?
A: 4

Q: Which gall rating scale does the source give for `Cc1c(C(=O)NS(=O)(=O)c2cc(Cl)ccc2Cl)nnn1-c1ccc(C#N)cc1F` [Compound 410] here?
A: 4

Q: How did the gall rating scale turn out when `Cc1c(C(=O)NS(=O)(=O)c2ccc(F)cc2F)nnn1-c1ccc(C#N)cc1F` [Compound 413] was run?
A: 4

Q: With `Cc1c(C(=O)NS(=O)(=O)c2ccccc2F)nnn1-c1ccc(C#N)cc1F` [Compound 415] as the compound, how does the gall rating scale read?
A: 4

Q: `Cc1c(C(=O)NS(=O)(=O)c2cc(C(F)(F)F)ccc2C(F)(F)F)nnn1-c1c(Cl)cc(Cl)cc1Cl` [Compound 430] was tested. Which gall rating scale did it give?
A: 4

Q: For `Cc1c(C(=O)NS(=O)(=O)c2cc(C(F)(F)F)ccc2Br)nnn1-c1ccc(Cl)cc1F` [Compound 432], which gall rating scale is on record?
A: 4

Q: How did the gall rating scale turn out when `Cc1ccc(C)c(S(=O)(=O)NC(=O)c2nnn(-c3ccc(Cl)cc3F)c2C)c1` [Compound 433] was run?
A: 4

Q: How did the gall rating scale turn out when `Cc1c(C(=O)NS(=O)(=O)c2cc(C(F)(F)F)ccc2C(F)(F)F)nnn1-c1ccc(Cl)cc1F` [Compound 441] was run?
A: 4

Q: Which gall rating scale does the source give for `Cc1c(C(=O)NS(=O)(=O)c2ccccc2C(F)(F)F)nnn1-c1ccc(Cl)cc1F` [Compound 443] here?
A: 4

Q: With `Cc1c(C(=O)NS(=O)(=O)c2ccccc2F)nnn1-c1ccc(Cl)cc1F` [Compound 445] as the compound, how does the gall rating scale read?
A: 4

Q: With `Cc1c(C(=O)NS(=O)(=O)c2cc(C(F)(F)F)ccc2Cl)nnn1-c1ccc(Cl)cc1F` [Compound 446] as the compound, how does the gall rating scale read?
A: 4

Reference: patent US20250129031A1, “1,2,3-TRIAZOLE CARBONYL SULFONYLAMIDE COMPOUNDS AND USE THEREOF” (PI INDUSTRIES LTD., priority 2022, published 2025)
